In general, Km refers to the concentration of substrate that gives half-maximal velocity. As a reminder, the Cmax is the maximum level reached in the sampled fluid or tissue. For orientation: inhibition means the relative decrease from the control value, in per cent. A higher inhibition goes with a response far below the control.

The target of series [1] is T1, MATE1 (Homo sapiens, UniProt Q96FL8).
T1 sequence (Q96FL8 1-570): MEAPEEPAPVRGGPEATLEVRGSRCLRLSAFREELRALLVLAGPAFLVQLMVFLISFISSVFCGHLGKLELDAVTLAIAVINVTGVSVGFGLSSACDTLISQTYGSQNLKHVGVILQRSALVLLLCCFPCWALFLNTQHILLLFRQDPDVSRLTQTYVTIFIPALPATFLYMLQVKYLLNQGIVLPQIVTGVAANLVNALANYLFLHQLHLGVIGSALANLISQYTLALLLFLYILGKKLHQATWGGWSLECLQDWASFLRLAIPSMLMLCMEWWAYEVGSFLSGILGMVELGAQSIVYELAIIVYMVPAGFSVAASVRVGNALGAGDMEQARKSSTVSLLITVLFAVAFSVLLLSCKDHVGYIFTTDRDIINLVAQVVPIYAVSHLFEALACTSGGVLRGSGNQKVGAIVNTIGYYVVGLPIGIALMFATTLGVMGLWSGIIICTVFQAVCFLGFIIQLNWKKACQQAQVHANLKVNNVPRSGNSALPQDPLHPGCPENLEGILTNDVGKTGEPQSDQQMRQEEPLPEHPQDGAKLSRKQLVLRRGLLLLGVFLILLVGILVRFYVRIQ
Briefly: High throughput screen.

For series [2], the target named is T1, MATE1. In words: in vitro. The following applies: HEK cells stably overexpressing MATE1, pH 7.4.
The conditions of series [3]: cited from earlier work.
For series [4] the following is noted: ref 53 (Micromedex); cited from earlier work.
Series [5] concerns the target T1, MATE1. The class given is cell-based.
The next series has as its target human MATE2-K (Homo sapiens, UniProt Q86VL8). In kind it is cell-based. The following applies: for did not inhibit MATE2-K up to: highest concentration without inhibition, data not shown.
Another series addresses T2, human OCT2 (Homo sapiens, UniProt O15244).
T2 sequence (O15244 1-555): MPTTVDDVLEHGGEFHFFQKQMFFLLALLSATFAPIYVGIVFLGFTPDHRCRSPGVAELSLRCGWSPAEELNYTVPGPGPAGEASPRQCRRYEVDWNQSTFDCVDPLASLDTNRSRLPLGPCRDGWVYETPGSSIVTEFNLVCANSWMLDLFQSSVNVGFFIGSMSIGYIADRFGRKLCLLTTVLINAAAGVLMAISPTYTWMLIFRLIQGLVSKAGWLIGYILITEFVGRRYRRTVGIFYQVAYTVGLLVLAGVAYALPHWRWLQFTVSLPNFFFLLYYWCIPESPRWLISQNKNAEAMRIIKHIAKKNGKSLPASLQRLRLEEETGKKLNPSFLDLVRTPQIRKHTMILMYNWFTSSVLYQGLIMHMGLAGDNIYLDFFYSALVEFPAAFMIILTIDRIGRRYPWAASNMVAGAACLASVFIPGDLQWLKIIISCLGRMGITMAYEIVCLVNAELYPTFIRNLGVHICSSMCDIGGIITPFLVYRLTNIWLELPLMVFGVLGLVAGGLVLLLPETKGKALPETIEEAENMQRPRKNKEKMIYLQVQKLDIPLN
In kind it is cell-based.

Series [6] addresses T1, MATE1. In words: 14C-metformin uptake in HEK293 cells stably expressing MATE1.
Series [7] concerns the target T1, MATE1.
Where [8] appears, read: clinical plasma concentration, ref 54-58 (a-e).

Read-outs that look alike come from different tables or passages of the source.

human MATE2-K, sequence (Q86VL8 1-566 isoform Q86VL8-3): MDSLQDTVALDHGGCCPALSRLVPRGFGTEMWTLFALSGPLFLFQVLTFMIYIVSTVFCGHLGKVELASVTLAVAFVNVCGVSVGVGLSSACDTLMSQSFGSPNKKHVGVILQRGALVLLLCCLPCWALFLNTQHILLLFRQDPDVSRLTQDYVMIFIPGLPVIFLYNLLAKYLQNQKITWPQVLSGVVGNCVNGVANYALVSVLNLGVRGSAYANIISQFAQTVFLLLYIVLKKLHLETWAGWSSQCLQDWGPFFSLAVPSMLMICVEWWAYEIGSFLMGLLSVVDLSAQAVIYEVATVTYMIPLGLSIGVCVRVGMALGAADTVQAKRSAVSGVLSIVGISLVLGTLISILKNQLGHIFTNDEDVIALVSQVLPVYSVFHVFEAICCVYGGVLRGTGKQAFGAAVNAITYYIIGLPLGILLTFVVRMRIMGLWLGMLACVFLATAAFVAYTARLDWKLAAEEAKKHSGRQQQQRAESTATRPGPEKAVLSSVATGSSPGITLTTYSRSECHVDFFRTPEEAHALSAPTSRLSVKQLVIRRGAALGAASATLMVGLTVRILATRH

On MATE1 [1], `CC[C@@]1(O)C(=O)OCc2c1cc1n(c2=O)Cc2cc3c(CN(C)C)c(O)ccc3nc2-1` [Topotecan] registered an IC50 of 19.7 µM.
Same read-out and setting: the figure for `CN1C2CCCC1CC(NC(=O)c1nn(C)c3ccccc13)C2` (stereo not drawn) [Granisetron] is 9.9 µM.
Consider `CN(C)c1ccc(/C=C/c2cc[n+](C)cc2)cc1` [ASP^+, 4-(4-(Dimethylamino)styryl)-N-methylpyridinium iodide], for which the Km at […] on MATE1 [2] came to 34 µM.
Consider `O=C1c2c(O)ccc(O)c2C(=O)c2c(NCCNCCO)ccc(NCCNCCO)c21` [Mitoxantrone], for which, in series [3] (in vivo), the Cmax is 630 nM.
With `NC1=NCC2c3ccccc3Cc3ccccc3N12` (stereo not drawn) [Epinastine], at MATE1 [1], the IC50 is 0.6 µM.
Turning to `COc1ccnc(C[S+]([O-])c2nc3ccc(OC(F)F)cc3[nH]2)c1OC` (stereo not drawn) [Pantoprazole], the “Protein Binding [% bound]” value in [4] is on record as 98 % bound.
In turn, `C#C[C@]1(O)CC[C@H]2[C@@H]3CCc4cc(O)ccc4[C@H]3CC[C@@]21C` [Ethinyl estradiol] gave an IC50 at MATE1 [1] of 13.5 µM.
Turning to `[H]/N=C(\N/C(=N/[H])NCCCCCCNC(=N)NC(=N)Nc1ccc(Cl)cc1)Nc1ccc(Cl)cc1` [Chlorhexidine], the IC50 on MATE1 [1] was determined as 3.1 µM.
With `CO[C@@H]1[C@@H](O[C@@H]2O[C@H](C)[C@@H](O[C@H]3C[C@@](C)(O)[C@@H](OC(=O)CC(C)C)[C@H](C)O3)[C@H](N(C)C)[C@H]2O)[C@@H](CC=O)C[C@@H](C)[C@@H](O)/C=C/C=C/C[C@@H](C)OC(=O)C[C@H]1O` [Leucomycin], the IC50 turned out to be 11.1 µM against MATE1 [5], 125 µM at human MATE2-K, 182 µM against human OCT2 and 16 µM on MATE1 [1]. Moreover, on MATE1 [1] (human, HEK cells stably overexpressing MATE1, pH 7.4, probe ASP+ (5 µM)), 20 µM produced 56 ± 1% inhibition.
As for `CCOC(=O)c1ccc(OC(=O)CCCCCNC(=N)N)cc1` [Gabaxate], at MATE1 [1] (read-out: prIC50, predicted IC50 estimated from screening inhibition at 20 μM), the IC50 was 0.8 µM.
With `N=C(N)c1ccc(OCCCCCOc2ccc(C(=N)N)cc2)cc1` [Pentamidine], the Cmax in [3] (in vivo) is 730 nM.
Turning to `Cc1nccn1CC1CCc2c(c3ccccc3n2C)C1=O` (stereo not drawn) [Ondansetron], in series [3] (setting [8]), the Cmax is 440 nM. Besides, in [4], the “Protein Binding [% bound]” value is 73 % bound.
In the case of `CCc1c2c(nc3ccc(OC(=O)N4CCC(N5CCCCC5)CC4)cc13)-c1cc3c(c(=O)n1C2)COC(=O)[C@]3(O)CC` [Irinotecan], the Cmax in series [3] (in vivo) was 4600 nM.
In the case of `COc1ccc2c(c1OC)C(=O)O[C@@H]2[C@H]1c2c(cc3c(c2OC)OCO3)CCN1C` [Noscapine], on human MATE2-K, the “did not inhibit MATE2-K up to” value was more than 500 µM.
Regarding `COc1cc2c3cc1Oc1cc(ccc1O)C[C@@H]1c4c(cc(OC)c(O)c4Oc4ccc(cc4)C[C@@H]3N(C)CC2)CC[N+]1(C)C` [Tubocurarine], on MATE1 [5], the “Cmax,unbound /IC50 (MATE1, text)” value is given as 0.07. The compound also came in with an IC50 against MATE1 [1] of 1.1 µM.
For the compound `NC(N)=Nc1nc(CSCCC(N)=NS(N)(=O)=O)cs1` [Famotidine], on MATE1 [5] (ratio, IC50 with ASP+ in HEK293-MATE1, clinical relevance threshold ≥ 0.1), the “Cmax,unbound/ IC50 of MATE1, ASP^+” value is given as 0.51. The Cmax in series [3] (in vivo) was 460 nM. Moreover, the IC50 was 0.09 µM against MATE1 [6] and 0.16 µM on MATE1 [7]. The “Cmax,unbound/ IC50 of MATE1, Metformin” value on MATE1 [6] (ratio, IC50 with 14C-metformin in HEK293-MATE1, threshold ≥ 0.1) is 4.34. The “Cmax,unbound/ IC50 of MATE1, Metformin Polarized Cells” value at MATE1 [7] (ratio, IC50 with 14C-metformin in polarized MDCK-hMATE1, threshold ≥ 0.1) came out at 2.44.
As to `CC(C)(C)NC(=O)[C@@H]1CN(Cc2cccnc2)CCN1C[C@@H](O)C[C@@H](Cc1ccccc1)C(=O)N[C@H]1c2ccccc2C[C@H]1O` [Indinavir], the Cmax in series [3] (setting [8]) is 9800 nM.
In the case of `COc1ccccc1OCCNCC(O)COc1cccc2[nH]c3ccccc3c12` (stereo not drawn) [Carvedilol], the “did not inhibit MATE2-K up to” value at human MATE2-K was more than 500 µM.
The compound `CN1C[C@H](C(=O)N[C@]2(C)O[C@@]3(O)[C@@H]4CCCN4C(=O)[C@H](Cc4ccccc4)N3C2=O)C[C@@H]2c3cccc4[nH]cc(c34)C[C@H]21` [Dihydroergotamine] showed an IC50 on MATE1 [1] of 8 µM.

Source of the values: publication PMC4068829 (Journal of medicinal chemistry, 2013).
